Laboratory results published in patent US20200281944A1, “Combinations Of Lanosterol Or 25-Hydroxycholesterol Including Derivatives Thereof Useful In The Treatment Of Lens Disorders” (priority 2017, published 2020).
Counter-ions that a name gives are not always drawn.

What was measured:
[1] = test system: lens opacification; details: cell cultures, in the presence of guanidine; cited from earlier work
[2] = test system: presbyopia; details: cited from earlier work

NCCC(=O)N[C@@H](Cc1c[nH]cn1)C(=O)O [L-carnosine, β-alanyl-L-histidine]
prevention of lens opacification [1]: 50 to 60%

CC(C)=CCC[C@@H](C)[C@H]1CC[C@@]2(C)C3=C(CC[C@]12C)[C@@]1(C)CC[C@H](OP(=O)(O)O)C(C)(C)[C@@H]1CC3 (as salt: phosphate)
melting point: 204 to 205 °C

C[N+](C)(C)CCOC(=O)CCCC[C@@H]1CCSS1 [EV06, Lipoic acid choline ester]
binocular near acuity ([2]; Lipoic acid choline ester 1.5%): improved
distance corrected near vision acuity (DCNVA) efficacy measures ([2]; in vivo): improvement in all
